# ChEMBL document CHEMBL2331198, “Identification of small-molecule inhibitors of the human S100B-p53 interaction and evaluation of their activity in human melanoma cells” (Bioorg Med Chem, 2013)
# Active and inactive are the calls of the source. The calls are words filed in the database; no cut-off is given here.
# Assays:
# Protein S100-B = target: T1, Protein S100-B (Homo sapiens, UniProt P04271); assay: Inhibition of human S100B/human TAMRA-p53(367-388) interaction by fluorescence polarization assay
# T1 sequence (P04271 whole entry): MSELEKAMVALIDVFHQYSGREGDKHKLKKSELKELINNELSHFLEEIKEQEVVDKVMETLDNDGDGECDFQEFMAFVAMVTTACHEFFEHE
# [1] = target: T2, Protein S100-B (Homo sapiens) (UniProt P04271); assay: Inhibition of human S100B/humanTAMRA-p53(367-388) interaction assessed as inhibition rate at 50 uM by fluorescence polarization assay
# T2 sequence (whole entry): T1 sequence (P04271 whole entry)
# WM-115 = assay: Cytotoxicity against human WM115 cells assessed as growth inhibition measured after 72 hrs by crystal violet assay; type: functional, cell-based; settings: WM-115, 72 h
# [2] = target: T2, Protein S100-B (Homo sapiens); assay: Inhibition of human S100B/humanTAMRA-p53(367-388) interaction assessed as inhibition rate at 93 uM by fluorescence polarization assay
# [3] = target: T2, Protein S100-B (Homo sapiens); assay: Inhibition of human S100B/humanTAMRA-p53(367-388) interaction by In situ proximity ligation assay
SMILES,IC50 (Protein S100-B) [µM],inhibition [1] [%],IC50 (WM-115) [µM],inhibition [2] [%],Ki (Protein S100-B) [µM],inhibition [3]
COc1ccc(/C=N/c2ccc(O)cc2)cc1,36.3,,,,,
Nc1ccc(N2CCNCC2)cc1,,< 50,,,,
CN1CCN(c2ccc(N)c(N3CCN(C)CC3)c2)CC1,,< 50,,,,
N=C(N)c1ccc(OCCCCCOc2ccc(C(=N)N)cc2)cc1 [PENTAMIDINE],> 100,,4.8,14.2,,
CCN(CC)c1ccc(N)c(C)c1,8.4,,8.5,,5,
Nc1cc(N2CCCCC2)ccc1N1CCCCC1,31.5,,36.4,,25.1,
Nc1ccc(N2CCCCC2)cc1N1CCCCC1,2,,4.9,,< 1,Active
